Measured values as given in article PMC8025302, “Structural and biophysical characterization of the tandem substrate-binding domains of the ABC importer GlnPQ” (Open Biology, 2021).
Several values for one entry are separate records, joined by “and”; a condition that tells them apart may be missing. Equal entries are not always repeated.

Assays:
[1] = molecular target: T1, SBD1-2(D417F) (Lactococcus lactis, UniProt Q9CES5, D417F); assay: Isothermal titration calorimetry, tandem variant with inactive SBD2; details: binding to SBD1 in SBD1-2(D417F) (inactive SBD2); ITC
T1 sequence (Q9CES5 27-484 D417F): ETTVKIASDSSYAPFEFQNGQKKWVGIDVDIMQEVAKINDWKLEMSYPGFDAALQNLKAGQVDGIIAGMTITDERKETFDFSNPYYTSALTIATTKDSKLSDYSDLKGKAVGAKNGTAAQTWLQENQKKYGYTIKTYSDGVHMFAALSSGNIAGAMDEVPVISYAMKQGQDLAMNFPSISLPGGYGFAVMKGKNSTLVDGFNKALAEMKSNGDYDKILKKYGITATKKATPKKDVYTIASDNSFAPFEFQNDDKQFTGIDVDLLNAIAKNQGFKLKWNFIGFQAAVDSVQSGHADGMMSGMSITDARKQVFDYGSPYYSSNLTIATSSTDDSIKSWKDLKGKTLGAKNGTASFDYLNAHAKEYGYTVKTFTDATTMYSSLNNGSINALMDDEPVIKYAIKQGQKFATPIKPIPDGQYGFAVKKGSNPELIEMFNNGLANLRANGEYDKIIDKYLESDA

[2] = molecular target: T2, SBD1^A-2 (Lactococcus lactis, UniProt Q9CES5, T159C, form not given); assay: smFRET / ALEX spectroscopy titration, tandem SBD1^A-2; format: binding; details: Alexa Fluor 555/647, read-out: apparent KD
T2 sequence (Q9CES5 27-484 T159C): T1 sequence (Q9CES5 27-484 D417F)

[3] = molecular target: T3, SBD1 in SBD1-Δ5-SBD2 (Lactococcus lactis, UniProt Q9CES5, DEL252-256); assay: Isothermal titration calorimetry, SBD1 site of linker deletion mutant; format: binding; details: ITC
T3 sequence (Q9CES5 27-484 DEL252-256): T1 sequence (Q9CES5 27-484 D417F)

[4] = molecular target: T4, SBD1^A (SBD1(T159C/G87C)) (Lactococcus lactis, UniProt Q9CES5, T159C, form not given); assay: smFRET / ALEX spectroscopy titration, single SBD1^A; format: binding; details: single domain SBD1^A, Alexa Fluor 555/647, read-out: apparent KD
T4 sequence (Q9CES5 29-251 T159C): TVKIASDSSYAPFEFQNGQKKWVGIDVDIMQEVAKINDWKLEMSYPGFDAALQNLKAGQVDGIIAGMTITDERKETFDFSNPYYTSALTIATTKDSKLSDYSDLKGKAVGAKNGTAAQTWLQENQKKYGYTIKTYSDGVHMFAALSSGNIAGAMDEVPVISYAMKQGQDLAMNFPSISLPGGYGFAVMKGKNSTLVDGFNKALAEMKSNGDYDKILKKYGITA

[5] = molecular target: T5, SBD2^C (SBD2(T369C/S451C)) (Lactococcus lactis, UniProt Q9CES5, S451C/T369C); assay: smFRET / ALEX spectroscopy titration, single SBD2^C; format: binding; details: single domain SBD2^C, Alexa Fluor 555/647, read-out: apparent KD
T5 sequence (Q9CES5 255-484 T369C/S451C): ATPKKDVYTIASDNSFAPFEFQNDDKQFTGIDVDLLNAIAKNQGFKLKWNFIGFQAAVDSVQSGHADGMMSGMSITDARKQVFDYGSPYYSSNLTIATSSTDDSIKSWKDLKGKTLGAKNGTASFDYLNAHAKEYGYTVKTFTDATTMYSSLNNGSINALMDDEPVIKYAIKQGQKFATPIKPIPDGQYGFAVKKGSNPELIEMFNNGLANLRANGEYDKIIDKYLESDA

[6] = molecular target: T6, SBD1-2^C (Lactococcus lactis, UniProt Q9CES5, S451C/T369C); assay: smFRET / ALEX spectroscopy titration, tandem SBD1-2^C; format: binding; details: Alexa Fluor 555/647, read-out: apparent KD
T6 sequence (Q9CES5 27-484 T369C/S451C): T1 sequence (Q9CES5 27-484 D417F)

[7] = molecular target: T7, SBD1(E184W)-2 (Lactococcus lactis, UniProt Q9CES5, E184W); assay: Isothermal titration calorimetry, tandem variant with inactive SBD1; details: binding to SBD2 in SBD1-2(E184W) (inactive SBD1); ITC
T7 sequence (Q9CES5 27-484 E184W): T1 sequence (Q9CES5 27-484 D417F)

[8] = molecular target: T8, SBD2 in SBD1-Δ5-SBD2 (Lactococcus lactis, UniProt Q9CES5, DEL252-256); assay: Isothermal titration calorimetry, SBD2 site of linker deletion mutant; format: binding; details: SBD1-Δ5-SBD2, high-affinity site (SBD2), no asparagine; ITC figure 6f
T8 sequence (Q9CES5 27-484 DEL252-256): T1 sequence (Q9CES5 27-484 D417F)

SMILES: NC(=O)C[C@H](N)C(=O)O [asparagine]
- Kd [1]: 400 ± 60 nM
- Kd [2]: 75 nM
- Kd [3]: 60 nM
- Kd [4]: 140 nM

SMILES: NC(=O)CC[C@H](N)C(=O)O [glutamine]
- Kd [5]: 1500 nM and ~1500 nM
- Kd [6]: 900 nM and ~900 nM
- Kd [7]: 1500 ± 800 nM
- Kd [2]: 300000 nM
- Kd [3]: 25800 nM and 19000 nM
- Kd [8]: 1700 nM
- Kd [4]: 130000 nM
